{"source": "paper PMC9230455", "about": "(Pharmaceuticals, 2022)", "key": {"[1]": {"tested_on": "impaired glucose tolerance (IGT) mice", "experiment": "Oral glucose tolerance test in impaired glucose tolerance (IGT) mice", "format": "in vivo, mouse", "design": "AUC of Day 1, Blood glucose level (120 min): unit not given beside the values", "conditions": "for Blood Glucose Value of 30 min: 30 min after 2.5 g/kg glucose gavage; for Blood Glucose Value of 30 min / Blood Glucose Value of 60 min / Blood Glucose Value of 90 min / Blood Glucose Value of 120 min / Fasting Blood Glucose Level: M ± SD, n = 8; for Blood Glucose Value of 60 min: 60 min after 2.5 g/kg glucose gavage; for Blood Glucose Value of 90 min: 90 min after 2.5 g/kg glucose gavage; for Blood Glucose Value of 120 min: 120 min after 2.5 g/kg glucose gavage", "experimental": "After in vitro experiments were conducted to investigate the DPP-4 inhibition ability and receptor affinity of GLP-1RAs, further in vivo experiments were conducted to compare the hypoglycemic effects of GLP-1RAs on impaired glucose tolerance (IGT) mice. The model of IGT mice was established by a one-week injection of streptozotocin, compared with the normal glucose tolerance (NGT) group, the increase in blood glucose in the IGT group after intragastric glucose administration was statistically significant, and the increase in blood glucose in each experimental group was similar after grouping (as shown in Table A2). Each group was fasted for 9 h before the last administration, fasting blood glucose (FBG) was measured one hour after administration, and then an oral glucose tolerance test (OGTT) was performed.\nAfter fasting for 9 h, the OGTT was performed again the next day. The duration of GLP-1RAs was measured using the second day’s OGTT. […] The blood glucose level of the G1 group was lower than that of the vehicle group at each time point, and the difference was statistically significant. […] The blood sugar of IGT mice can be well controlled at a level equivalent to that of NGT mice, and the effect time of the drug was more than 24 h.\nMale KM mice age 6–8 weeks with weight of 18–25 g were selected and injected with STZ at a dose of 40 mg/kg per mouse to establish mouse model of IGT. One week after the injection, OGTT was performed. Blood was collected from the tail tip of each mouse to measure the blood glucose concentration. Mice with blood glucose level increase greater than 200% after intragastric administration of glucose were selected. […] The NGT and vehicle groups were treated with normal saline, and the other groups were treated with the corresponding protein solution diluted to 20 µmol/L with normal saline. Each mouse was injected with 25 µL/10 g body weight. The FBG of each group was measured one hour after the last administration, and then 2.5 g/kg glucose solution was administered by gavage immediately, and blood glucose was measured at 30, 60, 90, and 120 min after gavage. The FBG was measured the same time the next day, and the glucose solution was administered by gavage again at 2.5 g/kg. Blood glucose was measured 30, 60, 90, and 120 min after gavage. The statistical software GraphPad Prism 8.0, was used to process the data. The blood glucose level at each time point was compared between the groups using two-way analysis of variance. p < 0.05 was considered statistically different."}, "[2]": {"biological_target": "dipeptidyl peptidase-4 (DPP-4) (UniProt P27487)", "sequence (P27487 whole entry)": "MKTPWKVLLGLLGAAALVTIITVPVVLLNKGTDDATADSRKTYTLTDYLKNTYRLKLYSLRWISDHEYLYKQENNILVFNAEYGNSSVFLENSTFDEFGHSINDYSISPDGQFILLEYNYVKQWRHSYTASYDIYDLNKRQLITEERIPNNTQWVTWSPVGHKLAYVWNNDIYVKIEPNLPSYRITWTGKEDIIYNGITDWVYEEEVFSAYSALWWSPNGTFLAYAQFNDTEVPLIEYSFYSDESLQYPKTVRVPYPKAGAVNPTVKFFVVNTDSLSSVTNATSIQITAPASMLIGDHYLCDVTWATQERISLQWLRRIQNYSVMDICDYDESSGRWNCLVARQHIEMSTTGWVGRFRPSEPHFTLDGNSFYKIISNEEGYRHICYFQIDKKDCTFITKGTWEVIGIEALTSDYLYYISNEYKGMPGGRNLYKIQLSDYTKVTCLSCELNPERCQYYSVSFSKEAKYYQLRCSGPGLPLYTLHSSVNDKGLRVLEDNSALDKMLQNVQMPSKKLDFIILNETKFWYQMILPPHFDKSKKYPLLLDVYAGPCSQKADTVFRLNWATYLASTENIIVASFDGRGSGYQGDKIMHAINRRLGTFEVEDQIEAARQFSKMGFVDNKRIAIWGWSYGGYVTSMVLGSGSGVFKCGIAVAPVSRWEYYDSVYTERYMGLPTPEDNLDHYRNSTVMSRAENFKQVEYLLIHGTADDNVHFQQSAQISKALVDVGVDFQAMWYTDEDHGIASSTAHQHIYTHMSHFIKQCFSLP"}, "[3]": {"conditions": "first day OGTT, 20 µmol/L protein, 25 µL/10 g injected"}}, "data": [{"compound": "CC[C@H](C)[C@H](NC(=O)[C@H](Cc1ccccc1)NC(=O)[C@H](CCC(=O)O)NC(=O)[C@H](CCCCN)NC(=O)[C@H](C)NC(=O)[C@H](C)NC(=O)[C@H](CCC(N)=O)NC(=O)CNC(=O)[C@H](CCC(=O)O)NC(=O)[C@H](CC(C)C)NC(=O)[C@H](Cc1ccc(O)cc1)NC(=O)[C@H](CO)NC(=O)[C@H](CO)NC(=O)[C@@H](NC(=O)[C@H](CC(=O)O)NC(=O)[C@H](CO)NC(=O)[C@@H](NC(=O)[C@H](Cc1ccccc1)NC(=O)[C@@H](NC(=O)CNC(=O)[C@H](CCC(=O)O)NC(=O)[C@H](C)NC(=O)[C@@H](N)Cc1c[nH]cn1)[C@@H](C)O)[C@@H](C)O)C(C)C)C(=O)N[C@@H](C)C(=O)N[C@@H](Cc1c[nH]c2ccccc12)C(=O)N[C@@H](CC(C)C)C(=O)N[C@H](C(=O)N[C@@H](CCCCN)C(=O)NCC(=O)N[C@@H](CCCNC(=N)N)C(N)=O)C(C)C", "note": "[GLP-1, Glucagon-like peptide-1]", "values": [{"measurement": "AUC of Day 1, Blood glucose level (120 min)", "setting": "[1]; first day OGTT in IGT mice, 0-120 min, vehicle 60.54, NGT 40.57", "result": 47.54}, {"measurement": "Blood Glucose Value of 30 min", "setting": "[1]; [3]", "result": "18.2 ± 1.9", "unit": "mmol/L"}, {"measurement": "Blood Glucose Value of 60 min", "setting": "[1]; [3]", "result": "13.6 ± 1.7", "unit": "mmol/L"}, {"measurement": "Blood Glucose Value of 90 min", "setting": "[1]; [3]", "result": "9.3 ± 2.3", "unit": "mmol/L"}, {"measurement": "Blood Glucose Value of 120 min", "setting": "[1]; [3]", "result": "7.9 ± 1.3", "unit": "mmol/L"}, {"measurement": "Fasting Blood Glucose Level", "setting": "[1]; first day, IGT mice (STZ, male KM), fasted 9 h, one hour after last administration, 20 µmol/L protein, 25 µL/10 g injected", "result": "4.9 ± 0.7", "unit": "mmol/L"}, {"measurement": "Fasting Blood Glucose Level", "setting": "[1]; second day (no new dose), IGT mice fasted 9 h", "result": "5.9 ± 1.1", "unit": "mmol/L"}, {"measurement": "Blood Glucose Value of 30 min", "setting": "[1]; second day OGTT", "result": "25.1 ± 4.1", "unit": "mmol/L"}, {"measurement": "Blood Glucose Value of 60 min", "setting": "[1]; second day OGTT", "result": "18.2 ± 3.4", "unit": "mmol/L"}, {"measurement": "Blood Glucose Value of 90 min", "setting": "[1]; second day OGTT", "result": "11.6 ± 1.9", "unit": "mmol/L"}, {"measurement": "Blood Glucose Value of 120 min", "setting": "[1]; second day OGTT", "result": "9.2 ± 1.3", "unit": "mmol/L"}]}, {"compound": "G1 (GLP-1 receptor agonist: GLP-1 Val33Cys, linker GCGGGGGG, antiparallel β lamellar domain of superoxide dismutase at the C-terminus) (designed binder)", "values": [{"measurement": "Area Under Curve of the residual percentage (ELISA) during digestion with excess DPP-4, up to 24 h, 30 °C, PBS pH 7.4", "setting": "[2]", "result": 5.14}]}, {"compound": "G2 (GLP-1 receptor agonist: antiparallel β lamellar domain of superoxide dismutase at the amino terminus of GLP-1) (designed binder)", "values": [{"measurement": "Area Under Curve of the residual percentage (ELISA) during digestion with excess DPP-4, up to 24 h, 30 °C, PBS pH 7.4", "setting": "[2]", "result": 1.34}]}, {"compound": "G4 (GLP-1 receptor agonist: GLP-1 Ser18Cys with the antiparallel β lamellar domain of superoxide dismutase at the C-terminus, without the linker) (designed binder)", "values": [{"measurement": "Area Under Curve of the residual percentage (ELISA) during digestion with excess DPP-4, up to 24 h, 30 °C, PBS pH 7.4", "setting": "[2]", "result": 2.47}]}, {"compound": "human GLP-1 (glucagon-like peptide-1)", "values": [{"measurement": "Area Under Curve of the residual percentage (ELISA) during digestion with excess DPP-4, up to 24 h, 30 °C, PBS pH 7.4", "setting": "[2]", "result": 1.02}]}]}
